Read-outs that look alike come from different tables or passages of the source.
Key:
stability to storage = format: physicochemical; conditions: result in words
Procedure: A modification of the procedure of Newman et al., J. Med. Chem. 30: 1901, 1987, was used. In this procedure, 1,3-phenylenediamine, 0.211 grams, 1.95 mmol, was dissolved in 80 ml chloroform. Thirty ml water and 0.38 gram, 4.5 mmol, sodium bicarbonate was added, and the mixture was stirred vigorously. After ten minutes, 0.4 ml, 5.2 mmol of freshly distilled thiophosgene was added. After one hour, the phases were separated, and the organic layer was dried over sodium sulfate and evaporated. The residue was triturated with ether:petroleum ether, 1:1, and filtered. The filtrate was evaporated, leaving the product as a white solid (0.30 g, 81% yield), melting at 50.5°-51° C.

A1 adenosine receptors = molecular target: T1, A1 adenosine receptors (Rattus norvegicus, UniProt P25099); experiment: inhibition of binding of [3H]N6-phenylisopropyladenosine ([3H]PIA) to A1 adenosine receptors in rat cerebral cortex membranes
T1 construct: A1 adenosine receptors in rat cerebral cortex membranes; from tissue; host or cells: rat cerebral cortex membranes
T1 sequence (P25099 1-326): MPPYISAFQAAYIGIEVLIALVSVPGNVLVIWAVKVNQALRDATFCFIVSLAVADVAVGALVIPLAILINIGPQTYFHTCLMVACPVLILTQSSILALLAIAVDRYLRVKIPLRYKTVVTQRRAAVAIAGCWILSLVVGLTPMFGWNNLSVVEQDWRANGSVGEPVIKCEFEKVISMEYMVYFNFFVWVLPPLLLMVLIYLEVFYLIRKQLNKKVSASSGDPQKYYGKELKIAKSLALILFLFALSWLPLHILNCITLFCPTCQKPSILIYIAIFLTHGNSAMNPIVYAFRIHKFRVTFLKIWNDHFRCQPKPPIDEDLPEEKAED
Procedure: Ukena et al., FEBS Letters 209;122, 1986.
For the biochemical assays, stock solutions of xanthines in the millimolar concentration range in dimethylsulfoxide were prepared and stored frozen. The solutions were warmed to 50° C. prior to dilution in aqueous medium. […] Acad. Sci. USA, 83:4089, 1986. Inhibition of binding by a range of concentrations of a xanthine or adenosine derivative was assessed in triplicate in at least three separate experiments.

A1-adenosine receptors [1] = experiment: irreversible inhibition of [3H]XAC binding sites after one hour incubation and washout, bovine brain membranes; set-up: species or system bovine (calf)
A1-adenosine receptors [2] = experiment: covalent labeling of solubilized central A1 receptor preparation, SDS electrophoresis; format: binding; conditions: tritiated 4b, SDS gel, with or without high concentration of R-PIA
Text: An SDS electrophoresis gel separated proteins from a solubilized central A1 receptor preparation, pretreated with compound 4b (lane 1).

[3] = chemical reactivity towards primary amines (thin layer chromatography); format: physicochemical; conditions: ethylene diamine in molar excess, TLC
rat brain membranes = molecular target: T2, rat brain membranes (Rattus norvegicus, UniProt P25099); experiment: inhibition of [3H]XAC binding to rat brain membranes (blocking experiments)
T2 construct: A1 -adenosine receptors in rat brain membranes; from tissue; host or cells: rat brain membranes
T2 sequence (P25099 1-326): T1 sequence (P25099 1-326)

central A1 receptors [4] = molecular target: T3, central A1 receptors (Rattus norvegicus, UniProt P25099); format: binding
T3 construct: A1 -adenosine receptors in rat brain membranes; from tissue; host or cells: rat brain membranes
T3 sequence (P25099 1-326): T1 sequence (P25099 1-326)

central A1 receptors [5] = molecular target: T4, central A1 receptors (Bos taurus, UniProt P28190); experiment: inhibition of radioligand binding at central A1 receptors, calf brain membranes
T4 construct: A1 -adenosine receptors in membranes form calf brain; from tissue; host or cells: calf brain membranes
T4 sequence (P28190 1-326): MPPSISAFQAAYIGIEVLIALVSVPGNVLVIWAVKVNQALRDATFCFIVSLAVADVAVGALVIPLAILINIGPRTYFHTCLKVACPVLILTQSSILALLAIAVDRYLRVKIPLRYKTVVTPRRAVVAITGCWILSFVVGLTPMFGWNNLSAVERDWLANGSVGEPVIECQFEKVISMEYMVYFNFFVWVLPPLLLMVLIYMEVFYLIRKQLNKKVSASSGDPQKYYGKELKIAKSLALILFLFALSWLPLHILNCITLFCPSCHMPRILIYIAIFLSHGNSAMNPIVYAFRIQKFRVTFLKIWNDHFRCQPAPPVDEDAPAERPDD
Text: ^b against [^125 I]APNEA (i.e. N^6
^b against [^125 I]APNEA;
The compounds, at concentrations relative to the Ki -values obtained, were screened for the ability to inhibit competitive binding of the radioligands [^3 H]PIA to rat brain membranes and [^3 H]XAC to bovine brain membranes, a shown in Table 1.

With `CCCn1c(=O)c2nc(-c3ccc(OCC(=O)NCCN=C(S)Nc4ccc(N=C=S)cc4)cc3)[nH]c2n(CCC)c1=O` [Compound 4b] the stability to storage (stability to storage) was “stable to storage at -20 °C”, the Ki (A1 adenosine receptors; Table I, rat, against [3H]PIA, read-out: Ki at central A1 receptors, rat) was 6.6 ± 1.31 nM and the “adenosine receptor binding sites irreversibly inhibited” value (A1-adenosine receptors [1]; 500 nM, one hour incubation, bovine brain membranes, [3H]XAC binding) was 90%. For the same molecule, the “irreversible inhibition of A1-adenosine receptors, calf brain membranes” value (A1-adenosine receptors [1]; calf/bovine brain, result in words) was “irreversibly inhibits A1 -adenosine receptors in membranes form calf brain and from rat brain in a dose-dependent manner”, the “covalent labeling of A1-adenosine receptor” value (A1-adenosine receptors [2]) was “Specific labeling of the receptor (MW approximately 40,000)” and the “reactivity towards primary amines” value [3] was “quantitatively reactive towards primary amines”. The Ki (rat brain membranes) was 22 nM, the remaining activity at 0.1 µM (central A1 receptors [4]; 1 h, read-out: remaining receptor binding sites after treatment (of initial density)) was 34% and the “irreversible inhibition of A1-adenosine receptors, rat brain membranes” value (central A1 receptors [4]; rat brain, result in words) was “irreversibly inhibits A1 -adenosine receptors in membranes form calf brain and from rat brain in a dose-dependent manner”. For the same molecule, the inhibition at 0.1 µM (central A1 receptors [4]; read-out: % inhib (conc)) was 63%, the “irreversible inhibition of central A1-adenosine receptors” value (central A1 receptors [4]; result in words) was “behave pharmacologically as irreversible inhibitors of central A1 -adenosine receptors” and the Ki (central A1 receptors [5]) was 1 nM.

Work on `CCCn1c(=O)c2[nH]c(-c3ccc(OCC(=O)NCCNC(=S)Nc4ccc(NC(=S)NCCN)cc4)cc3)nc2n(CCC)c1=O` [ethylene diamine adduct] yielded a Ki (rat brain membranes; rat brain membranes, [3H]XAC) of 18 nM.

With `C[C@H](Cc1ccccc1)Nc1ncnc2c1ncn2[C@@H]1O[C@H](CO)[C@@H](O)[C@H]1O` [R-PIA, reference compound] the “covalent labeling of A1-adenosine receptor” value (A1-adenosine receptors [2]) was “blocks the irreversible ligand”.

In the case of `S=C=Nc1cccc(N=C=S)c1` [Compound 5a, 1,3-phenyldiisothiocyanate], the stability to storage (stability to storage) is reported as “stable to storage at room temperature for at least several weeks”.

With `O=C(Cc1ccc(NC(=O)Cc2ccc(Nc3ncnc4c3ncn4[C@@H]3O[C@H](CO)[C@@H](O)[C@H]3O)cc2)cc1)NCCNC(=S)Nc1cccc(N=C=S)c1` [Compound 28] the Ki (A1 adenosine receptors) was 0.86 nM, the inhibition at 0.05 µM (central A1 receptors [4]; read-out: % inhib (conc)) was > 80% and the “irreversible inhibition of central A1-adenosine receptors” value (central A1 receptors [4]; result in words) was “behave pharmacologically as irreversible inhibitors of central A1 -adenosine receptors”. For the same molecule, the Ki (central A1 receptors [5]) was 0.1 nM.
